Data from patent publication US10464977B2 (University of Maryland, Baltimore, priority 2016, dated 2019).
Residues, ends and D or L forms follow the SMILES beside them. No end group written: not given here.

Key:
Sap2 [1] = molecular target: T1, Sap2 (Candida albicans, UniProt P0DJ06); assay: in vitro; details: for degradation by Sap2 (in words): 6.25 μg mL^−1 Sap2, 150 μg mL^−1 peptide; for degradation by Sap2 (in words) / intact peptide remaining after incubation with higher Sap2 concentration: 2 h, 37° C.; for intact peptide remaining after incubation with higher Sap2 concentration: 18 μg mL^−1 Sap2, 150 μg mL^−1 peptide
T1 sequence (P0DJ06 57-398): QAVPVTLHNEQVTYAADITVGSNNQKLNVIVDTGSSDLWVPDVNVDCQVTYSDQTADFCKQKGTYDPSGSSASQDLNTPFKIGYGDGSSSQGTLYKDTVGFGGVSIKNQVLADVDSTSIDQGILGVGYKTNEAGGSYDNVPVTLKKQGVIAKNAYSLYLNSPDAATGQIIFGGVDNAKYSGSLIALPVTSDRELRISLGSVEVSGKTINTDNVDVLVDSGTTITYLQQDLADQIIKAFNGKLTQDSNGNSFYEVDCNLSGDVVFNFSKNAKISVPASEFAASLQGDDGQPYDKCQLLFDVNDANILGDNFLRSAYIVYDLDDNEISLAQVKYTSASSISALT
Protocol: (§1) Experiments were done in 1 mM NaPB. The mixtures were incubated at 37° C. for 2 h, and NaPB with no Sap was used as a control. After the incubation, the samples were mixed with tricine sample buffer (without Coomassie Blue G-250, except in control samples) containing β-mercaptoethanol and boiled for 5 min at 100° C. to inactivate the proteases. The degraded and non-degraded peptides were separated by gel electrophoresis in 10-20% Tris-tricine gels (Bio-Rad), and the gels were then fixed in a 10% acetic acid/40% methanol/50% water mixture for 30 min. The fixed gels were stained with Bio-Safe Coomassie stain (Bio-Rad) for 1 h and washed with fresh water three times, once overnight and then twice for at least 2 h each time. The gels were imaged on a Chemidoc imager (Bio-Rad), and densitometric analysis was done with Image Lab software (Bio-Rad). […] Three replicates of the assay were done.
(§2) To measure the antifungal activity of the peptides following degradation by the Saps, the antifungal activity assay was performed as described above, except the peptides were first exposed to Saps. The peptide fragments were prepared by incubating each peptide (150 μg mL^−1) with 6.25 μg mL^−1 Sap9 or 18 μg mL^−1 Sap2 for 2 h at 37° C. The enzymes were then inactivated by heating at 100° C. for 5 min. As controls, each peptide was also incubated with only NaPB buffer. Samples were then stored at −20° C. until use in the antifungal activity assay.
(§3) The intact peptide was then separated from the degradation products using gel electrophoresis and quantified the level of degradation using densitometric analysis of Coomassie-stained gels.
(§4) To amplify differences in antifungal activity due to degradation by the Saps, the concentrations of the Saps was increased by at least two-fold compared to the concentrations used for the gel electrophoresis data in FIGS. 1A-1D (to 6.25 μg mL^−1 for Sap9 and 18 μg mL^−1 for Sap2).

Sap9 [2] = molecular target: T2, Sap9 (Candida albicans, UniProt Q59SU1); assay: in vitro; details: Candida albicans, isolated enzyme
T2 sequence (Q59SU1 18-520): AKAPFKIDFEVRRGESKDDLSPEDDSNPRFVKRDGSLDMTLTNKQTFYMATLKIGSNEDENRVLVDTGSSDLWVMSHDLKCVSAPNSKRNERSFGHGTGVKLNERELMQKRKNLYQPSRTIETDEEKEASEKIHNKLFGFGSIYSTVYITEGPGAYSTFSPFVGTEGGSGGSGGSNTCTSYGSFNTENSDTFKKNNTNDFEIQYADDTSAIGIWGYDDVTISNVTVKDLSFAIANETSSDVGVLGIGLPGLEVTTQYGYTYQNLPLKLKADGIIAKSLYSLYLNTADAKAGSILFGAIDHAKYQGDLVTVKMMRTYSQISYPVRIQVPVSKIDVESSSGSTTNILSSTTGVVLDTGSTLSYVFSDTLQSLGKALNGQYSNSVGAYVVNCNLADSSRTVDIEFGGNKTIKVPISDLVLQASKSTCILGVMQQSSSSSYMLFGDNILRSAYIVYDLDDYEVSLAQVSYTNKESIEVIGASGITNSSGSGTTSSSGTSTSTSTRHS
Protocol: as §1, §2, §3, §4

Sap2 [3] = molecular target: T1, Sap2; details: 6.25 μg mL^−1 Sap2
Protocol: (§5) The cleavage sites of the Saps and the abundance of the fragments produced by cleavage were determined using mass spectrometry. […] The binding solution was 0.1% formic acid, and the releasing solution was 0.1% formic acid/60% acetonitrile (ACN). To ensure equal flow-through volume of each sample, 18 μL of desalted sample was aliquoted and 1 μL of the four-amino acid peptide MRFA at 0.1 mg mL^−1 was added. Samples were manually loaded through loop injection at 25 μL min^−1 with 40% ACN/0.1% formic acid. Mass spectra were acquired with a Thermo Scientific Orbitrap Fusion Lumos Tribrid mass spectrometer with data-dependent analysis at a 5 s cycle time. Manufacturer recommended source parameters for a flow rate of 25 μL min^−1 were applied. Full scan mass spectra of m z^−1 350-1550 were acquired in the orbitrap at R=120000 (m z^−1 200) with fluoranthene ion as the internal calibrant. CID and ETD fragments of the most intense ions (z>1) were recorded with the orbitrap at R=60000 (m z^−1 200). Dynamic exclusion was set at 30 s.
(§6) The molecular weights of the peptides and their fragments were calculated from full scan MS spectra using the XTract program in the XCalibur software (Thermo Scientific). MS/MS spectra from ETD and CID fragmentation were processed using Proteome Discoverer (V2.1) with Prosight PD node to identify peptides and their degradation products. […] Intensities of identified peptides and their degradation products relative to the internal standard MRFA were obtained from the deconvoluted full scan mass spectra.
(§7) After incubation of the peptides with each Sap, the four-amino-acid peptide MRFA was added as an internal standard, and samples were directly injected into the mass spectrometer.

Sap9 [4] = molecular target: T2, Sap9; details: 3.13 μg mL^−1 Sap9
Protocol: as §5, §6, §7

[5] = tested on: C. albicans cells (ATCC 90028); assay: Degradation of peptides by whole C. albicans cells, gel densitometry; assay type: in vitro ADME; details: 1×10^9 cells mL^−1, 150 μg mL^−1 peptide, 2 h, 37° C., 100 mM NaPB
Protocol: For degradation with C. albicans, a single colony of the ATCC 90028 strain (American Type Culture Collection) was used to inoculate YPD. The culture was grown overnight, subcultured, and grown to an optical density of 1-1.2 at OD600. All incubations were done at 30° C. The cells were washed three times in 100 mM NaPB and diluted to 2×10^9 cells mL^−1. Equal volumes of cells and peptides were mixed and incubated for 2 h at 37° C. The cells were removed by centrifugation, and the supernatants were mixed with tricine sample buffer and boiled for 10 min. The samples were then run on gels and analyzed as described above for degradation by the Saps. Three biological replicates were performed.
After observing the effect of residue modifications on the cleavage of Hst-5 by the purified recombinant Saps, whether incubation of the peptides with whole C. albicans cells expressing Saps (rather than Saps produced recombinantly) would yield similar results was evaluated. Hst-5 and the synthetic peptides were incubated with C. albicans cells for 2 h at 37° C. in 100 mM NaPB. The high ionic strength of this buffer prevents internalization of the peptides by C. albicans (4) allowing analysis of degradation of the peptides without the confounding effects of peptide internalization, which would reduce the amount of peptide in the reaction buffer.

Sap2 [6] = assay: 6.25 μg mL^−1 Sap2 in 1 mM NaPB; details: C. albicans, 37° C., up to 2 h
Sap2 [7] = assay: 18 μg mL^−1 Sap2 in 1 mM sodium phosphate buffer (NaPB); details: C. albicans, 37° C., up to 2 h
Sap9 [8] = assay: 3.13 μg mL^−1 Sap9 in 1 mM NaPB; details: C. albicans, 37° C., up to 2 h

## C[C@H](NC(=O)[C@H](Cc1cnc[nH]1)NC(=O)[C@H](CO)NC(=O)[C@@H](N)CC(=O)O)C(=O)N[C@@H](CCCCN)C(=O)N[C@@H](CCCNC(=N)N)C(=O)N[C@@H](Cc1cnc[nH]1)C(=O)N[C@@H](Cc1cnc[nH]1)C(=O)NCC(=O)N[C@@H](Cc1ccc(O)cc1)C(=O)N[C@@H](CCCCN)C(=O)N[C@@H](CCCNC(=N)N)C(=O)N[C@@H](CCCCN)C(=O)N[C@@H](Cc1ccccc1)C(=O)N[C@@H](Cc1cnc[nH]1)C(=O)N[C@@H](CCC(=O)O)C(=O)N[C@@H](CCCCN)C(=O)N[C@@H](Cc1cnc[nH]1)C(=O)N[C@@H](Cc1cnc[nH]1)C(=O)N[C@@H](CO)C(=O)N[C@@H](Cc1cnc[nH]1)C(=O)N[C@@H](CCCNC(=N)N)C(=O)NCC(=O)N[C@@H](Cc1ccc(O)cc1)C(=O)O [Hst-5, reference compound]
Sap2 [1]; Candida albicans, isolated enzyme
  remaining at 2 h, 150 μg mL^−1: 61%
Sap9 [2]
  remaining at 2 h, 150 μg mL^−1: 47%
Sap2 [3]
  mass spectrometry signal of intact peptide versus fragments, Sap2: intact peptide having the highest signal
Sap9 [4]
  mass spectrometry signal of intact peptide versus fragments, Sap9: signal for the degradation fragment containing amino acids 1-17 of Hst-5 was higher than the intact peptide

## CC(C)C[C@H](NC(=O)[C@H](CCCNC(=N)N)NC(=O)[C@H](CCCCN)NC(=O)[C@H](Cc1ccc(O)cc1)NC(=O)CNC(=O)[C@H](Cc1c[nH]cn1)NC(=O)[C@H](Cc1c[nH]cn1)NC(=O)[C@H](CCCNC(=N)N)NC(=O)[C@H](CCCCN)NC(=O)[C@H](C)NC(=O)[C@H](Cc1c[nH]cn1)NC(=O)[C@H](CO)NC(=O)[C@@H](N)CC(=O)O)C(=O)N[C@@H](Cc1ccccc1)C(=O)N[C@@H](Cc1c[nH]cn1)C(=O)N[C@@H](CCC(=O)O)C(=O)N[C@@H](CCCCN)C(=O)N[C@@H](Cc1c[nH]cn1)C(=O)N[C@@H](Cc1c[nH]cn1)C(=O)N[C@@H](CO)C(=O)N[C@@H](Cc1c[nH]cn1)C(=O)N[C@@H](CCCNC(=N)N)C(=O)NCC(=O)N[C@@H](Cc1ccc(O)cc1)C(=O)O [Peptide K13L] (H-DSHAKRHHGYKRLFHEKHHSHRGY-OH; N-terminus and C-terminus assumed)
Sap9 [4]
  mass spectrometry signal of intact peptide versus fragments, Sap9: apparent shift in cleavage site preference compared to the parent Hst-5
[5]
  degradation by C. albicans cells (in words): increase in degradation compared to the parent Hst-5

## CC(C)C[C@H](NC(=O)[C@H](CCC(=O)O)NC(=O)[C@H](Cc1c[nH]cn1)NC(=O)[C@H](Cc1ccccc1)NC(=O)[C@H](CCCCN)NC(=O)[C@H](CCCNC(=N)N)NC(=O)[C@H](CCCCN)NC(=O)[C@H](Cc1ccc(O)cc1)NC(=O)CNC(=O)[C@H](Cc1c[nH]cn1)NC(=O)[C@H](Cc1c[nH]cn1)NC(=O)[C@H](CCCNC(=N)N)NC(=O)[C@H](CCCCN)NC(=O)[C@H](C)NC(=O)[C@H](Cc1c[nH]cn1)NC(=O)[C@H](CO)NC(=O)[C@@H](N)CC(=O)O)C(=O)N[C@@H](Cc1c[nH]cn1)C(=O)N[C@@H](Cc1c[nH]cn1)C(=O)N[C@@H](CO)C(=O)N[C@@H](Cc1c[nH]cn1)C(=O)N[C@@H](CCCNC(=N)N)C(=O)NCC(=O)N[C@@H](Cc1ccc(O)cc1)C(=O)O [Peptide K17L] (H-DSHAKRHHGYKRKFHELHHSHRGY-OH; N-terminus and C-terminus assumed)
Sap2 [1]
  degradation by Sap2 (in words): No detectable degradation
  intact peptide remaining after incubation with higher Sap2 concentration: over 70%
Sap9 [2]
  remaining at 2 h, 150 μg mL^−1: 77%
Sap2 [3]
  cleavage at the C-terminal side of K17 by Sap2 (mass spectrometry): still cleaved
Sap9 [4]
  cleavage on the C-terminal side of K17 by Sap9 (mass spectrometry): neither K17R nor K17L showed significant cleavage at this site
  mass spectrometry signal of intact peptide versus fragments, Sap9: the most intense signal came from the intact peptide

## C[C@H](NC(=O)[C@H](Cc1c[nH]cn1)NC(=O)[C@H](CO)NC(=O)[C@@H](N)CC(=O)O)C(=O)N[C@@H](CCCCN)C(=O)N[C@@H](CCCNC(=N)N)C(=O)N[C@@H](Cc1c[nH]cn1)C(=O)N[C@@H](Cc1c[nH]cn1)C(=O)NCC(=O)N[C@@H](Cc1ccc(O)cc1)C(=O)N[C@@H](CCCCN)C(=O)N[C@@H](CCCNC(=N)N)C(=O)N[C@@H](CCCCN)C(=O)N[C@@H](Cc1ccccc1)C(=O)N[C@@H](Cc1c[nH]cn1)C(=O)N[C@@H](CCC(=O)O)C(=O)N[C@@H](CCCNC(=N)N)C(=O)N[C@@H](Cc1c[nH]cn1)C(=O)N[C@@H](Cc1c[nH]cn1)C(=O)N[C@@H](CO)C(=O)N[C@@H](Cc1c[nH]cn1)C(=O)N[C@@H](CCCNC(=N)N)C(=O)NCC(=O)N[C@@H](Cc1ccc(O)cc1)C(=O)O [Peptide K17R] (H-DSHAKRHHGYKRKFHERHHSHRGY-OH; N-terminus and C-terminus assumed)
Sap2 [1]
  degradation by Sap2 (in words): No detectable degradation
  intact peptide remaining after incubation with higher Sap2 concentration: over 90%
Sap9 [2]
  remaining at 2 h, 150 μg mL^−1: 82%
Sap2 [3]
  cleavage at the C-terminal side of K17 by Sap2 (mass spectrometry): still cleaved
Sap9 [4]
  cleavage on the C-terminal side of K17 by Sap9 (mass spectrometry): neither K17R nor K17L showed significant cleavage at this site
  mass spectrometry signal of intact peptide versus fragments, Sap9: the most intense signal came from the intact peptide

## DSHAKRHHGYKRKFHELHHSHRGY
Sap2 [6]
  cleaved bond: L17-H18

## DSHAKRHHGYKRKFHERHHSHRGY
Sap2 [7]
  not cleaved: over 90% remaining
Sap2 [6]
  cleaved bond: R17-H18

## DSHAKRHHGYRRKFHERHHSHRGY
Sap9 [8]
  not cleaved: no observable degradation
Sap2 [6]
  not cleaved: no observable degradation
